Reference: ChEMBL document CHEMBL1201862, “PubChem BioAssay data set” (2004)
Each block holds one molecule with its values, some of them ahead of it. Calls of active or inactive are those of the source.

Experiments:
[1] = molecular target: T1, Probable nicotinate-nucleotide adenylyltransferase (Staphylococcus aureus (strain N315), UniProt P65502); assay type: functional, Staphylococcus aureus subsp. aureus N315;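 as to IC50 Mean: confirmatory dose-response retesting of NadD inhibitor hits first found in an ultra-high-throughput screen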
[2] = molecular target: T1, Probable nicotinate-nucleotide adenylyltransferase; assay type: functional, Staphylococcus aureus subsp. aureus N315; conditions: read-out: IC50_Mean
H9c2 = assay: cells; assay type: functional, cell-based; conditions: Rattus norvegicus, H9c2, Myocardium;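 also: confirmatory concentration-response retest of ultra-high-throughput screening hits for modulation of myocardial damage; cell death induced by hydrogen peroxide oxidative stress; compound pretreatment for 60 min then peroxide exposure for 2 h; potency is for protecting the cells against peroxide damage rather than for killing them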
[3] = molecular target: T2, Sentrin-specific protease 8 (Homo sapiens, UniProt Q96LD8); assay type: functional;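 also: luminescence read-out of SENP8 inhibition, dose-response confirmation following an ultra-high-throughput screen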
T2 sequence (Q96LD8 whole entry): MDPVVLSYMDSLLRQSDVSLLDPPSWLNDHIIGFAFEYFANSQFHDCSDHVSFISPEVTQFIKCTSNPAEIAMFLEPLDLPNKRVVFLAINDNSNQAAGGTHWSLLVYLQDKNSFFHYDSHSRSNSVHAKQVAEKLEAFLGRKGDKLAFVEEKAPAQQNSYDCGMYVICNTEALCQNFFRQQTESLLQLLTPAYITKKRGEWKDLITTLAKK

[4] = molecular target: T3, Sentrin-specific protease 7 (Homo sapiens, UniProt Q9BQF6); assay type: functional;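 also: Luminescence-based dose-response confirmation of ultra-high-throughput screening hits, measuring inhibition of SENP7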
T3 sequence (Q9BQF6 whole entry): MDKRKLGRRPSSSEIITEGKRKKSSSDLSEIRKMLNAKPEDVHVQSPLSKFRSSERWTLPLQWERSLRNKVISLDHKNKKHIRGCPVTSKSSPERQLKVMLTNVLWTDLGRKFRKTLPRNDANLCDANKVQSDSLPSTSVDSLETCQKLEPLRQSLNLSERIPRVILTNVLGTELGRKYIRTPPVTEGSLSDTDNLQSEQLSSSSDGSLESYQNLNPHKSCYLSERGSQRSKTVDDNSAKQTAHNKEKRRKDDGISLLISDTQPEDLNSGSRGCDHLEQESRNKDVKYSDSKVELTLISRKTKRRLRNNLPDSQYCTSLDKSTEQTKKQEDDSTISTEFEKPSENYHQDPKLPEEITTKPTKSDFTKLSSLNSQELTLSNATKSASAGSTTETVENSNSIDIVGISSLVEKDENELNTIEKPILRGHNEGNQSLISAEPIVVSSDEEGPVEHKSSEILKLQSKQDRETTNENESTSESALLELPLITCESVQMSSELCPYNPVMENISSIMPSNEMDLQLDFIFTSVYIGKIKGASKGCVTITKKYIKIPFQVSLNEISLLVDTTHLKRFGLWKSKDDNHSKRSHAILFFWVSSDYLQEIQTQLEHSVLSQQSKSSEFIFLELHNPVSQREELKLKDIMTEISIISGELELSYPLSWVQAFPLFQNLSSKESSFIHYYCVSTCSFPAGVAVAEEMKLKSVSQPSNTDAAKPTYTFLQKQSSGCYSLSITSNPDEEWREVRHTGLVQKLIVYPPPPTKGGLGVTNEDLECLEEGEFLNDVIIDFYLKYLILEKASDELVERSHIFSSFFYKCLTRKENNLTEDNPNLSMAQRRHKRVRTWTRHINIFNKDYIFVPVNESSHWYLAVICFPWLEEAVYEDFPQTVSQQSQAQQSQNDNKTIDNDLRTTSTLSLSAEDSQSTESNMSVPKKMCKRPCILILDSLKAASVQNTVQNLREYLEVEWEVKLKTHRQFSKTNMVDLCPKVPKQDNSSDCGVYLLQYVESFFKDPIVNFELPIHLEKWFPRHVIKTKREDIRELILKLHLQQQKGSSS

[5] = molecular target: T4, Sentrin-specific protease 6 (Homo sapiens, UniProt Q9GZR1); assay type: functional;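 also: Luminescence-based dose-response confirmatory assay of SENP6 inhibition, following up an ultra-high-throughput screen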
T4 sequence (Q9GZR1 whole entry): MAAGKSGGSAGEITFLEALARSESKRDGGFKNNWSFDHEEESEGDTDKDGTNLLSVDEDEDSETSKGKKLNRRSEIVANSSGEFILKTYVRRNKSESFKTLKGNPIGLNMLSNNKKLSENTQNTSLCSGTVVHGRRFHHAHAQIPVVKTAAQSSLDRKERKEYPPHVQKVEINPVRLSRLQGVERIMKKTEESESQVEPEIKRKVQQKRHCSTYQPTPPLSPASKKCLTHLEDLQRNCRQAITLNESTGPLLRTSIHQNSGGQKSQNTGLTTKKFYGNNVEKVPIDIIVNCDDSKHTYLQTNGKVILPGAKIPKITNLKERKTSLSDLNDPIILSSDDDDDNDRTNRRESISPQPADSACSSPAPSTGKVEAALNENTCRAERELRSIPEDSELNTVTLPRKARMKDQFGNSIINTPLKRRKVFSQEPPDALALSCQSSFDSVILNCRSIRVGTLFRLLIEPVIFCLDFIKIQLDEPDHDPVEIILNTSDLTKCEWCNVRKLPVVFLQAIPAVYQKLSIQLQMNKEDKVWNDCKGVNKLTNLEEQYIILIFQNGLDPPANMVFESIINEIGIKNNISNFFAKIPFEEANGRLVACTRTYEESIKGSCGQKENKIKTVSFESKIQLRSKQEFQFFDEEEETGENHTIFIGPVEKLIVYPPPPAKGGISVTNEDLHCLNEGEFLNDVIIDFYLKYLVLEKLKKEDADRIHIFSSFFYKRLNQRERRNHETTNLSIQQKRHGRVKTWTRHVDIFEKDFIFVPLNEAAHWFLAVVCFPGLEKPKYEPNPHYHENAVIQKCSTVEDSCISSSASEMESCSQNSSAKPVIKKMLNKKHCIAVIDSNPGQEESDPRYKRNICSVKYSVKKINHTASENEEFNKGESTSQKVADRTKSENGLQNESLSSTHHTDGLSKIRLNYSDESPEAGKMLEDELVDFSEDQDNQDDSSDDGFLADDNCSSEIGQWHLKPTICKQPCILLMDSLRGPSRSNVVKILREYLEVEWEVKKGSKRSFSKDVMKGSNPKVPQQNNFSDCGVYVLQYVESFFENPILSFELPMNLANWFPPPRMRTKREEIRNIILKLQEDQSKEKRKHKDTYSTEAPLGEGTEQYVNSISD

Caspase-3 = molecular target: T5, Caspase-3 (Homo sapiens, UniProt P42574); assay type: functional;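 also: Dose-response selectivity test against caspase-3 for candidate inhibitors of sentrin-specific proteases (SENPs)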
T5 sequence (P42574 whole entry): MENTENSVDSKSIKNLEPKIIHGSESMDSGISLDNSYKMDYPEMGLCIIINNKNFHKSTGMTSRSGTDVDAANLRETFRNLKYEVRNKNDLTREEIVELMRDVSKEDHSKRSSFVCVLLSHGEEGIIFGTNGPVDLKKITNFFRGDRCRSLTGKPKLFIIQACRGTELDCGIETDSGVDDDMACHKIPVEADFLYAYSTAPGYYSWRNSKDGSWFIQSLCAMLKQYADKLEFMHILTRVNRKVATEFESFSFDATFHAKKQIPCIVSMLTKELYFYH

[6] = molecular target: T6, Tyrosine-protein kinase receptor TYRO3 (Homo sapiens, UniProt Q06418); assay type: functional;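 also: TYRO3 value obtained as one member of a kinome-wide profiling panel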
T6 sequence (Q06418 whole entry): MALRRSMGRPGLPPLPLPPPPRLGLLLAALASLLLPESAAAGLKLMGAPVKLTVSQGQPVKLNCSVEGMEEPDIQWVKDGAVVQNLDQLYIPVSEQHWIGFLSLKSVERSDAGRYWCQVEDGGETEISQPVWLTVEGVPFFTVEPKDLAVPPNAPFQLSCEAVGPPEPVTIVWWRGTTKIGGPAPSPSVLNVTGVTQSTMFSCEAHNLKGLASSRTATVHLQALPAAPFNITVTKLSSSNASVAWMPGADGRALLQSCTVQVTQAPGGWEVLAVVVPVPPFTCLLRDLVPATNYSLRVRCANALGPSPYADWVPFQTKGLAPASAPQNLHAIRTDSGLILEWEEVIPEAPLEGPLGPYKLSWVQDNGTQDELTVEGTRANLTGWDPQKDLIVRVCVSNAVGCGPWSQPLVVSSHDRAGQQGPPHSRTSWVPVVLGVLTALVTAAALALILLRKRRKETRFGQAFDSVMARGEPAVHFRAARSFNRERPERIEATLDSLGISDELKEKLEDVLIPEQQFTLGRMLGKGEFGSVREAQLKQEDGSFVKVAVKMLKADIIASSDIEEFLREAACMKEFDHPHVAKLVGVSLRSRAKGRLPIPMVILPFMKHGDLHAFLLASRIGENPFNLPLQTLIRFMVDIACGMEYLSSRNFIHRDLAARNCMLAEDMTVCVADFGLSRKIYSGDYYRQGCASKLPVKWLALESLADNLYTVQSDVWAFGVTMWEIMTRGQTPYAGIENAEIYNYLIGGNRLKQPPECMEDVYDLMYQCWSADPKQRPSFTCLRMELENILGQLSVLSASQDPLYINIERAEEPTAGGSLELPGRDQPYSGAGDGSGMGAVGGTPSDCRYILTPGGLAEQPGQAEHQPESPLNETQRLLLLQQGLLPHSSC

[7] = molecular target: Dual specificity tyrosine-phosphorylation-regulated kinase 1B (Homo sapiens, UniProt Q9Y463); assay: Navigating the Kinome. Panel member name: DYRK1B; assay type: functional
Dual specificity tyrosine-phosphorylation-regulated kinase 1B, sequence (Q9Y463 whole entry): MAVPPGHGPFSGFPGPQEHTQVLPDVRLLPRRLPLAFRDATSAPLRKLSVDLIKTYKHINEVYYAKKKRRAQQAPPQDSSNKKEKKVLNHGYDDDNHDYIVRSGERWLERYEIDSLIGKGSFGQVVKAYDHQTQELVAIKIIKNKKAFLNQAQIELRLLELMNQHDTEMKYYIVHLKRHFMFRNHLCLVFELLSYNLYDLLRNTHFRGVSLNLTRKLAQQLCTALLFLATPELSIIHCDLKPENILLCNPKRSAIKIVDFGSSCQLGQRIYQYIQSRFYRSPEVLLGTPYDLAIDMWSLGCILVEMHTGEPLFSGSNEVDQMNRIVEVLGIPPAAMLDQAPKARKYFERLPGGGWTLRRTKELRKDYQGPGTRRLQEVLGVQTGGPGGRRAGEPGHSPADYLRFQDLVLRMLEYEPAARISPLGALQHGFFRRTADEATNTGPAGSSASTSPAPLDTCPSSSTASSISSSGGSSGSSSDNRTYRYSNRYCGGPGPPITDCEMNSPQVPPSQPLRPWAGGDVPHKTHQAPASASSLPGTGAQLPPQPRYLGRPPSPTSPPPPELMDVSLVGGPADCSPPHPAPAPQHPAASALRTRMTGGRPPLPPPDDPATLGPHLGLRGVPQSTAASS

IC50 [1]: 7.01 µM (active)
IC50 [2]: 52.8 µM (active)
Compound: Cc1ccc(Cl)cc1N1CCN(S(=O)(=O)c2ccc3[nH]c(=O)c(=O)[nH]c3c2)CC1

Compound: COc1cccc(Nc2nc(-c3sc(NC(=O)c4ccco4)nc3C)cs2)c1
IC50 [1]: 13.5 µM (active)
IC50 (H9c2): > 79 µM (inactive)
IC50 [2]: 33.2 µM (active)

IC50 [4]: 11.2 µM (active)
IC50 [5]: 34.9 µM (active)
IC50 (Caspase-3): 18.1 µM (active)
Compound: COc1ccccc1NC(=O)CCSc1ccc(C)cc1
IC50 [3]: 37 µM (active)

Ki [6]: 79.4 µM (active)
Ki [7]: 79.4 µM (active)
Compound: O=c1[nH]c2cnc(Cl)nc2[nH]1
